Data reported in patent EP0908457B1, “3-(1,2-benzisothiazol- and isoxazol-5-Y1)-2,4(1H,3H)-pyrimidinedione or thione and 3-(1,2-benzisothiazol- and isoxazol-5-y1)-4(3H)-pyrimidinone or thione herbicidal agents” (BASF AKTIENGESELLSCHAFT, priority 1997, dated 1999).

What was measured:
Cyperus iria = assay: Preemergence weed control under flooded paddy conditions, CYPIR (Rice Flatsedge); type: in vivo; conditions: preemergence, flooded paddy, rated three to four weeks after treatment
[1] = tested on: Echinochloa oryzoides (Ard.) Fritsch.; assay: Preemergence weed control under flooded paddy conditions, ECHORC (Watergrass (Calif.)); type: in vivo; conditions: preemergence, flooded paddy, rated three to four weeks after treatment
[2] = tested on: Cyperus serotinus, Rottb.; assay: Preemergence weed control under flooded paddy conditions, CYPSE (Flatsedge); type: in vivo; conditions: preemergence, rated three to four weeks after treatment
[3] = tested on: Monochoria vaginalis, Presl.; assay: Preemergence weed control under flooded paddy conditions, MOOVA (Monochoria); type: in vivo; conditions: preemergence, flooded paddy, rated three to four weeks after treatment
Sagittaria pygmaea, L. = assay: Preemergence weed control under flooded paddy conditions, SAGPY (Arrowhead (Pygmaea)); type: in vivo; conditions: preemergence, flooded paddy, rated three to four weeks after treatment
[4] = tested on: Oryza sativa, (L.) Tebonnet; assay: Rice tolerance to post-transplant applications under flooded paddy conditions (Example 187), ORYSAT (Rice, Tebonnet); conditions: rated three to four weeks after treatment; on herbicidal effect rating ORYSAT: meaning of each grade not given here

CO/N=C/c1nsc2ccc(-n3c(=O)cc(C(F)(F)F)n(C)c3=O)cc12 [Example 277, 1,2-Benzisothiazole-3-carboxaldehyde, 5-[3,6-dihydro-3-methyl-2,6-dioxo-4-(trifluoromethyl)-1(2H)-pyrimidinyl]-, 3-(O-methyloxime), (E)-]
CYPIR herbicidal effect rating (Cyperus iria; Rate 0.0320 kg/ha): 9.0
CYPIR herbicidal effect rating (Cyperus iria; Rate 0.0620 kg/ha): 9.0
CYPIR herbicidal effect rating (Cyperus iria; Rate 0.1250 kg/ha): 9.0
CYPIR herbicidal effect rating (Cyperus iria; Rate 0.2500 kg/ha): 9.0
CYPIR herbicidal effect rating (Cyperus iria; Rate 0.5000 kg/ha): 9.0
ECHORC herbicidal effect rating ([1]; Rate 0.0320 kg/ha): 7.0
ECHORC herbicidal effect rating ([1]; Rate 0.0620 kg/ha): 8.6
ECHORC herbicidal effect rating ([1]; Rate 0.1250 kg/ha): 9.0
ECHORC herbicidal effect rating ([1]; Rate 0.2500 kg/ha): 9.0
ECHORC herbicidal effect rating ([1]; Rate 0.5000 kg/ha): 9.0
CYPSE herbicidal effect rating ([2]; Rate 0.0320 kg/ha): 2.0
CYPSE herbicidal effect rating ([2]; Rate 0.0620 kg/ha): 9.0
CYPSE herbicidal effect rating ([2]; Rate 0.1250 kg/ha): 9.0
CYPSE herbicidal effect rating ([2]; Rate 0.2500 kg/ha): 9.0
CYPSE herbicidal effect rating ([2]; Rate 0.5000 kg/ha): 9.0
MOOVA herbicidal effect rating ([3]; Rate 0.0320 kg/ha): 9.0
MOOVA herbicidal effect rating ([3]; Rate 0.0620 kg/ha): 9.0
MOOVA herbicidal effect rating ([3]; Rate 0.1250 kg/ha): 9.0
MOOVA herbicidal effect rating ([3]; Rate 0.2500 kg/ha): 9.0
MOOVA herbicidal effect rating ([3]; Rate 0.5000 kg/ha): 9.0
SAGPY herbicidal effect rating (Sagittaria pygmaea, L.; Rate 0.0320 kg/ha): 6.0
SAGPY herbicidal effect rating (Sagittaria pygmaea, L.; Rate 0.0620 kg/ha): 8.0
SAGPY herbicidal effect rating (Sagittaria pygmaea, L.; Rate 0.1250 kg/ha): 9.0
SAGPY herbicidal effect rating (Sagittaria pygmaea, L.; Rate 0.2500 kg/ha): 9.0
SAGPY herbicidal effect rating (Sagittaria pygmaea, L.; Rate 0.5000 kg/ha): 9.0
ORYSAT herbicidal effect rating ([4]; Rate 0.0320 kg/ha): 5.0
ORYSAT herbicidal effect rating ([4]; Rate 0.0620 kg/ha): 7.0
ORYSAT herbicidal effect rating ([4]; Rate 0.1250 kg/ha): 7.0
ORYSAT herbicidal effect rating ([4]; Rate 0.2500 kg/ha): 8.0
ORYSAT herbicidal effect rating ([4]; Rate 0.5000 kg/ha): 9.0

Cn1c(C(F)(F)F)cc(=O)n(-c2ccc3snc(C(=O)NS(=O)(=O)Cc4cccc(Cl)c4)c3c2)c1=O [Example 486, 1,2-Benzisothiazole-3-carboxamide, N-[(m-chlorobenzyl)sulfonyl]-5-[3,6-dihydro-3-methyl-2,6-dioxo-4-(trifluoromethyl)-1(2H)-pyrimidinyl]-]
CYPIR herbicidal rating (Cyperus iria; 0.0320 kg/ha): 4.0
CYPIR herbicidal rating (Cyperus iria; 0.0620 kg/ha): 5.0
CYPIR herbicidal rating (Cyperus iria; 0.1250 kg/ha): 6.0
CYPIR herbicidal rating (Cyperus iria; 0.2500 kg/ha): 6.0
ECHORC herbicidal rating ([1]; 0.0320 kg/ha): 4.0
ECHORC herbicidal rating ([1]; 0.0620 kg/ha): 6.0
ECHORC herbicidal rating ([1]; 0.1250 kg/ha): 7.0
ECHORC herbicidal rating ([1]; 0.2500 kg/ha): 9.0
CYPSE herbicidal rating ([2]; 0.0320 kg/ha): 0.0
CYPSE herbicidal rating ([2]; 0.0620 kg/ha): 0.0
CYPSE herbicidal rating ([2]; 0.2500 kg/ha): 3.0
MOOVA herbicidal rating ([3]; 0.0320 kg/ha): 5.0
MOOVA herbicidal rating ([3]; 0.0620 kg/ha): 6.0
MOOVA herbicidal rating ([3]; 0.1250 kg/ha): 7.0
MOOVA herbicidal rating ([3]; 0.2500 kg/ha): 9.0
SAGPY herbicidal rating (Sagittaria pygmaea, L.; 0.0320 kg/ha): 0.0
SAGPY herbicidal rating (Sagittaria pygmaea, L.; 0.0620 kg/ha): 0.0
SAGPY herbicidal rating (Sagittaria pygmaea, L.; 0.1250 kg/ha): 3.0
SAGPY herbicidal rating (Sagittaria pygmaea, L.; 0.2500 kg/ha): 6.0
ORYSAT herbicidal rating (rice tolerance) ([4]; 0.0320 kg/ha): 0.0
ORYSAT herbicidal rating (rice tolerance) ([4]; 0.0620 kg/ha): 3.0
ORYSAT herbicidal rating (rice tolerance) ([4]; 0.1250 kg/ha): 5.0
ORYSAT herbicidal rating (rice tolerance) ([4]; 0.2500 kg/ha): 6.0

CN(C(=O)c1nsc2ccc(-n3c(=O)cc(C(F)(F)F)n(C)c3=O)cc12)c1ccc(Cl)cc1 [Example 365, 1,2-Benzisothiazole-3-carboxanilide, 4'-chloro-5-[3,6-dihydro-3-methyl-2,6-dioxo-4-(trifluoromethyl)-1(2H)-pyrimidinyl]-N-methyl-]
herbicidal effect rating, CYPIR (Cyperus iria; Rate 0.0320 kg/ha): 4.0
herbicidal effect rating, CYPIR (Cyperus iria; Rate 0.0620 kg/ha): 6.0
herbicidal effect rating, CYPIR (Cyperus iria; Rate 0.1250 kg/ha): 6.0
herbicidal effect rating, CYPIR (Cyperus iria; Rate 0.2500 kg/ha): 9.0
herbicidal effect rating, CYPIR (Cyperus iria; Rate 0.5000 kg/ha): 9.0
herbicidal effect rating, ECHORC ([1]; Rate 0.0320 kg/ha): 4.0
herbicidal effect rating, ECHORC ([1]; Rate 0.0620 kg/ha): 6.0
herbicidal effect rating, ECHORC ([1]; Rate 0.1250 kg/ha): 9.0
herbicidal effect rating, ECHORC ([1]; Rate 0.2500 kg/ha): 9.0
herbicidal effect rating, ECHORC ([1]; Rate 0.5000 kg/ha): 9.0
herbicidal effect rating, CYPSE ([2]; Rate 0.0320 kg/ha): 4.0
herbicidal effect rating, CYPSE ([2]; Rate 0.0620 kg/ha): 4.0
herbicidal effect rating, CYPSE ([2]; Rate 0.1250 kg/ha): 4.0
herbicidal effect rating, CYPSE ([2]; Rate 0.2500 kg/ha): 9.0
herbicidal effect rating, CYPSE ([2]; Rate 0.5000 kg/ha): 9.0
herbicidal effect rating, MOOVA ([3]; Rate 0.0320 kg/ha): 9.0
herbicidal effect rating, MOOVA ([3]; Rate 0.0620 kg/ha): 9.0
herbicidal effect rating, MOOVA ([3]; Rate 0.1250 kg/ha): 9.0
herbicidal effect rating, MOOVA ([3]; Rate 0.2500 kg/ha): 9.0
herbicidal effect rating, MOOVA ([3]; Rate 0.5000 kg/ha): 9.0
herbicidal effect rating, SAGPY (Sagittaria pygmaea, L.; Rate 0.0320 kg/ha): 3.0
herbicidal effect rating, SAGPY (Sagittaria pygmaea, L.; Rate 0.0620 kg/ha): 5.0
herbicidal effect rating, SAGPY (Sagittaria pygmaea, L.; Rate 0.1250 kg/ha): 5.0
herbicidal effect rating, SAGPY (Sagittaria pygmaea, L.; Rate 0.2500 kg/ha): 5.0
herbicidal effect rating, SAGPY (Sagittaria pygmaea, L.; Rate 0.5000 kg/ha): 6.0
herbicidal effect rating ORYSAT ([4]; Rate 0.0320 kg/ha): 3.0
herbicidal effect rating ORYSAT ([4]; Rate 0.0620 kg/ha): 5.0
herbicidal effect rating ORYSAT ([4]; Rate 0.1250 kg/ha): 5.0
herbicidal effect rating ORYSAT ([4]; Rate 0.2500 kg/ha): 5.0
herbicidal effect rating ORYSAT ([4]; Rate 0.5000 kg/ha): 6.0
